Assay results: the NIST ThermoML archive (doi:10.1021/je800463k)

Test: mn = molality of the nth substance listed, in mol/kg
Settings: 101 kPa, Liquid; for electrical conductivity: Frequency=0.001 MHz, Alternating current cell with electrodes; for speed of sound: Frequency=2 MHz; for mass density: Pycnometric method

[Mg+2].[O-][Cl+3]([O-])([O-])[O-].[O-][Cl+3]([O-])([O-])[O-] [magnesium perchlorate] + CO
Settings | electrical conductivity [S/m] | mass density [kg/m3] | speed of sound [m/s] | viscosity [mPa·s]
273.15 K, m1 = 0.0542 | 0.2699 | – | 1195.2 | 0.8742
273.15 K, m1 = 0.078 | 0.4031 | – | 1201.1 | –
273.15 K, m1 = 0.0925 | 0.4435 | – | 1203.6 | 0.9094
273.15 K, m1 = 0.1673 | 0.6702 | – | 1212.8 | 0.9874
273.15 K, m1 = 0.2872 | 0.9762 | – | 1226 | 1.13
273.15 K, m1 = 0.3228 | 1.058 | – | 1230.6 | 1.168
273.15 K, m1 = 0.4313 | 1.299 | – | 1245.5 | 1.329
273.15 K, m1 = 0.6444 | 1.752 | – | 1268.2 | 1.64
273.15 K, m1 = 1.059 | 2.122 | – | 1308.9 | 2.393
273.15 K, m1 = 1.395 | 2.273 | – | 1342.5 | 3.292
273.15 K, m1 = 1.717 | 2.343 | – | 1366.9 | 3.854
273.15 K, m1 = 2 | 2.355 | – | 1385.5 | 4.766
283.15 K, m1 = 0.0542 | 0.3054 | – | 1162.7 | 0.7345
283.15 K, m1 = 0.078 | 0.4563 | – | 1167.8 | –
283.15 K, m1 = 0.0925 | 0.5023 | – | 1170.8 | 0.768
283.15 K, m1 = 0.1673 | 0.7619 | – | 1178.9 | 0.8318
283.15 K, m1 = 0.2872 | 1.116 | – | 1193.9 | 0.9437
283.15 K, m1 = 0.3228 | 1.213 | – | 1197.5 | 0.9745
283.15 K, m1 = 0.4313 | 1.497 | – | 1213.2 | 1.102
283.15 K, m1 = 0.6444 | 2.001 | – | 1236.8 | 1.342
283.15 K, m1 = 1.059 | 2.513 | – | 1278.5 | 1.928
283.15 K, m1 = 1.395 | 2.731 | – | 1313.4 | 2.608
283.15 K, m1 = 1.717 | 2.848 | – | 1336.5 | 3.023
283.15 K, m1 = 2 | 2.892 | – | 1358.1 | 3.682
293.15 K, m1 = 0.0542 | 0.3414 | – | 1128.4 | 0.6286
293.15 K, m1 = 0.078 | 0.5074 | – | 1134.9 | –
293.15 K, m1 = 0.0925 | 0.5615 | – | 1137.7 | 0.6569
293.15 K, m1 = 0.1673 | 0.854 | – | 1146 | 0.7098
293.15 K, m1 = 0.2872 | 1.253 | – | 1161.8 | 0.7995
293.15 K, m1 = 0.3228 | 1.37 | – | 1165.4 | 0.8248
293.15 K, m1 = 0.4313 | 1.702 | – | 1181.4 | 0.9286
293.15 K, m1 = 0.6444 | 2.209 | – | 1205.9 | 1.112
293.15 K, m1 = 1.059 | 2.926 | – | 1247.5 | 1.585
293.15 K, m1 = 1.395 | 3.221 | – | 1282.1 | 2.11
293.15 K, m1 = 1.717 | 3.39 | – | 1307.5 | 2.43
293.15 K, m1 = 2 | 3.474 | – | 1329.1 | 2.923
294 K, m1 = 0.078 | – | 802.89 | – | –
295.3 K, m1 = 0.0925 | – | 802.82 | – | –
296.85 K, m1 = 0.3228 | – | 829.87 | – | –
296.9 K, m1 = 0.2872 | – | 825.72 | – | –
297.7 K, m1 = 0.078 | – | 799.44 | – | –
298 K, m1 = 0.0925 | – | 800.22 | – | –
298.15 K, m1 = 0.0542 | 0.3599 | – | 1111.3 | 0.5841
298.15 K, m1 = 0.078 | 0.5344 | – | 1119.1 | –
298.15 K, m1 = 0.0925 | 0.5917 | – | 1121.2 | 0.6098
298.15 K, m1 = 0.1673 | 0.9009 | – | 1129.8 | 0.656
298.15 K, m1 = 0.2872 | 1.332 | – | 1145.7 | 0.7391
298.15 K, m1 = 0.3228 | 1.452 | – | 1149.1 | 0.7618
298.15 K, m1 = 0.4313 | 1.807 | – | 1165.2 | 0.856
298.15 K, m1 = 0.6444 | 2.389 | – | 1189.2 | 1.019
298.15 K, m1 = 1.059 | 3.143 | – | 1232 | 1.446
298.15 K, m1 = 1.395 | 3.48 | – | 1267.7 | 1.91
298.15 K, m1 = 1.717 | 3.683 | – | 1293.2 | 2.196
298.15 K, m1 = 2 | 3.779 | – | 1314.4 | 2.624
298.3 K, m1 = 0.1673 | – | 809.54 | – | –
299.45 K, m1 = 0.078 | – | 797.76 | – | –
299.75 K, m1 = 0.3228 | – | 827.21 | – | –
299.8 K, m1 = 0.0925 | – | 798.59 | – | –
299.8 K, m1 = 0.2872 | – | 823.08 | – | –
301.15 K, m1 = 0.078 | – | 796.1 | – | –
301.15 K, m1 = 0.1673 | – | 806.95 | – | –
